# Measured values from patent US6166076A, “Taste enhancing food additives” (Board of Supervisors of Louisiana State University and …, priority 1997, dated 2000).
# Entries after “also recorded” stand apart in the source; their conditions may differ.
# Tests used:
# [1] = tested on: delayed rectifier K^+ channel; assay: whole-cell patch clamp, delayed rectifier K^+ channel (steady-state outward K^+ current at +40 mV) in rat fungiform taste receptor cells; assay type: cell-based, rat (Sprague-Dawley); settings: for effect on outward K^+ currents, specificity test: 10 μM, >10 min (maximal effect), significance by paired t test; for stimulation of taste receptor cells: summary statement
# Excerpt: (§1) The effects of free fatty acids ("FFAs") on taste buds isolated from rat fungiform papillae were examined to determine if a chemosensory (i.e. non-textural) cue for fats is located in the mouth. The methods used to isolate TRCs were generally as described in Behe et al., "Membrane Currents in Taste Cells of the Rat Fungiform Papilla: Evidence for Two Types of Ca Currents and Inhibition of K Currents by Saccharin," Journal of General Physiology, Vol. 96, pp. 1061-1084 (1990); Doolin et al., "Distribution and Characterization of Functional Amiloride-sensitive Sodium Channels in Rat Tongue," Journal of General Physiology, Vol. 107. pp. 545-554 (1996); and Gilbertson et al., "Proton Currents Through Amiloride-sensitive Na^+ Channels in Isolated Hamster Taste Cells: Enhancement by Vasopressin and cAMP," Neuron, Vol. 10, pp. 931-942 (1993).
# (§2) Individual fungiform taste buds were isolated from the tongues of 2- to 5-month-old male Sprague-Dawley rats (Harlan Sprague Dawley, Indianapolis,Ind.). Animals were housed individually in polycarbonate cages with food (Purina #5001, Purina Mills, St. Louis, Mo.) provided ad lib. The room containing the rats was maintained at 21-23° C. on a 0700-1900 h light-dark cycle. All animal care and experimental procedures were in accordance with National Institutes of Health guidelines, and were approved by the Institutional Animal Care and Use Committee of the Pennington Biomedical Research Center.
# (§3) Tongues were removed from euthanized rats, and were immediately placed in ice-cold Tyrode's solution. To remove the lingual epithelium containing the taste buds from the underlying muscle layer, approximately 1.0 ml of Tyrode's solution containing 0.3 mg/ml collagenase A (Boehringer Mannheim Corp., Indianapolis, Ind.), 2.5 mg/ml dispase (grade II; Boehringer Mannheim) and 1.0 mg/ml trypsin inhibitor (type I-S; Sigma Chemical Co., St. Louis, Mo.) was injected below the epithelium. The injected tongue was placed in Ca--Mg free Tyrode's solution and bubbled with O2 for 33-35 min. The lingual epithelium was removed and pinned serosal side up, allowing access to the taste buds. Fungiform taste buds were removed individually by gentle suction with a large, firepolished pipette (~200 μm diameter), and were plated onto Cell-Tak™-coated microscope slides (Collaborative Biomedical Prod., Bedford, Mass.) fitted with an O-ring which served as a recording chamber. Once plated, cells were perfused continually with Tyrode's or various test solutions. Taste buds isolated in this manner were used for up to 6 hours without any noticeable morphological or physiological decrement.
# (§4) All chemicals were obtained from Sigma Chemical Corporation (St. Louis, Mo.) unless otherwise indicated. Normal extracellular solution (Tyrode's) contained (in mM): NaCl, 140; KCl, 5; CaCl2, 1; MgCl2, 1; HEPES (N-[2-hydroxyethyl] piperazine-N'-[2-ethanesulfonic acid), 10; glucose, 10; and sodium pyruvate, 10. The pH was adjusted to 7.40 with NaOH. In Ca^2+ --Mg^2+ free Tyrode's solution, 2 mM BAPTA (1,2-bis(2-aminophenoxy) ethane-N,N,N',N'-tetraacetic acid) (Molecular Probes, Eugene, Oreg.) replaced CaCl2 and MgCl2. Other components were identical to Tyrode's solution. Intracellular (pipette) solution contained (in mM): KCl, 140; CaCl2, 1 [free Ca^2+ was ~10^-8 M]; MgCl2, 2; HEPES, 10; EGTA (ethylene glycol-bis(β-aminoethylether)-N,N,N',N'-tetraacetic acid), 11; and ATP, 3. The pH was adjusted to 7.20 with KOH.
# (§5) Free fatty acids (FFAs) were stored below -20° C. until the day of use, when they were dissolved in warm ethanol and diluted to final working concentrations in Tyrode's solution. Final ethanol concentrations in Tyrode's were below 0.1%; the ethanol had no effect on ionic currents in any TRCs. All FFAs were applied by bath perfusion. In some experiments, FFA-containing solutions were bubbled continuously with nitrogen to retard oxygenation. […]
# [2] = tested on: outward K^+ currents in rat fungiform taste receptor cells; assay: whole-cell patch clamp, total outward voltage-activated currents in rat fungiform taste receptor cells; assay type: cell-based, rat (Sprague-Dawley)
# Excerpt: as §1
# Individual fungiform taste buds were isolated from the tongues of 2- to 5-month-old male Sprague-Dawley rats (Harlan Sprague Dawley, Indianapolis,Ind.). Animals were housed individually in polycarbonate cages with food (Purina #5001, Purina Mills, St. Louis, Mo.) provided ad lib. The room containing the rats was maintained at 21-23° C. on a 0700-1900 h light-dark cycle. […]
# [3] = tested on: delayed rectifying K^+ channels; assay: patch clamp, delayed rectifying K^+ channels of TRCs isolated from Osborne-Mendel rats; assay type: cell-based
# Excerpt: (§6) To determine if there is a link between the sensitivity of TRCs to PUFAs and dietary fat preferences, the PUFA-sensitivities of TRCs using patch clamp techniques were compared on TRCs isolated from Osborne-Mendel ("O-M") rats and S5B/P1 rats, strains with different dietary preferences. O-M rats prefer fat over carbohydrate, while S5B/P1 rats prefer carbohydrate over fat. […] Rats whose TRCs were more sensitive to the fatty acids have a preference for a lower-fat diet; while rats whose TRCs are less sensitive to fatty acids seek diets that are higher in fat.
# [4] = tested on: delayed rectifying K^+ channels; assay: patch clamp, delayed rectifying K^+ channels of TRCs isolated from S5B/P1 rats; assay type: cell-based; settings: for inhibition of the delayed rectifying K^+ channels, S5B/P1 rats: TRCs from S5B/P1 rats; for sensitivity of S5B/P1 TRCs to inhibition compared with O-M TRCs: 10 μM, versus TRCs from O-M rats
# Excerpt: as §6
# [5] = tested on: rat fungiform taste receptor cells; assay: current clamp, stimulus-induced depolarization of rat fungiform taste receptor cells; assay type: cell-based, rat (Sprague-Dawley)
# Method: Voltage-activated currents were recorded from individual taste receptor cells maintained in the taste bud using the whole-cell patch clamp configuration, as generally described in Hamill et al., "Improved Patch-clamp Techniques for High-resolution Current Recording from Cells and Cell-free Membrane Patches," Pflugers Arch., Vol. 391, pp. 85-100 (1981). Patch pipettes were made by pulling mlcrohematocrit tubes (Scientific Products, McGaw Park, Ill.) on a Flaming/Brown micropipette puller (model P-97; Sutter Instrument Co., Novato, Calif.), and subsequently firepolishing on a microforge (model MF-9; Narishige, Tokyo) to a resistance between 5 and 10 M.OMEGA. when filled with intracellular solution.
# Since arachidonic acid and linoleic acid inhibit K^+ currents in TRCs and these channels play crucial roles in repolarizing the cells following activity, the presence of such FFAs should affect how these cells respond during stimulus-induced activity. This prediction was tested in cells in current clamp mode during perfusion of saline, both in the absence and presence of 10 μM linoleic acid. In response to current injection (+18 pA), TRCs typically fired 0-3 action potentials, followed by a sustained depolarization lasting as long as the stimulus was present. […] On average, the sustained depolarization during current injection (18 pA) in the rat fungiform taste receptor cells was 22.4±8.5 mV during perfusion of physiological saline (n=7 cells). Addition of 10 μM linoleic acid to the perfusate of the same cells increased the mean voltage response to 36.8±9.2 mV (n=7), an increase of 64%.
# [6] = tested on: inwardly rectifying K^+ channels (Kir); assay: whole-cell patch clamp, inwardly rectifying K^+ channels (Kir) at -130 mV in rat fungiform taste receptor cells; assay type: cell-based, rat (Sprague-Dawley); settings: n=5 cells
# Excerpt: as §1, §2, §3, §4, §5
compound,measurement,setting,value
"O=S(=O)(c1cccc2cnccc12)N1CCNCC1 [HA-100, reference compound]",effect of PKC/PKA inhibitor on linoleic acid-induced inhibition of outward K^+ currents,"[1]; 25 μM, intracellular, n=6 cells",did not prevent linoleic acid-induced inhibition of outward K^+ currents
CCCCC/C=C\C/C=C\C/C=C\C/C=C\CCCC(=O)OC [arachidonic acid methyl ester],modulation of TRC K^+ currents by esterified fatty acid,[2]; arachidonic acid methyl ester: n=5 cells,ineffective
"CCCCCCCC/C=C\CCCCCCCCCCCC(=O)O [erucic acid, reference compound]","effect on outward K^+ currents, specificity test",[1],did not have significant effects
"Nc1nc2c(ncn2[C@@H]2O[C@H](COP(=O)(O)OP(O)(O)=S)[C@@H](O)[C@H]2O)c(=O)[nH]1 [guanosine 5'-O-(2-thiodiphosphate), reference compound]",effect of G protein inhibitor on FFA effects on outward currents,"[1]; 0.5 mM in the patch pipette, n=5",did not inhibit the effects of FFA on outward currents
"CCCCCCCCCCCC(=O)O [lauric acid, reference compound]","inhibition of the delayed rectifying K^+ channels, O-M rats",[3],ineffective
same,"inhibition of the delayed rectifying K^+ channels, S5B/P1 rats",[4],ineffective
CCCCC/C=C\C/C=C\CCCCCCCC(=O)O [linoleic acid],effect of intracellular application on outward K^+ currents,"[1]; 10 μM in the pipette (intracellular) solution, up to 30 min or more",no effect
same,"effect on outward K^+ currents, specificity test",[1],significantly reduced outward K^+ currents
same,effect on outward K^+ currents on subsequent extracellular addition,"[1]; linoleic acid also in pipette, added extracellularly, n=11 cells",outward K^+ currents were inhibited
same,inhibition of outward K^+ currents in metyrapone-treated TRCs,"[1]; metyrapone 1 mM, 15 min, n=6 cells",still inhibited by linoleic acid in a quantitatively similar fashion
same,stimulation of taste receptor cells,[1],stimulate taste receptor cells
same,relative potency among the FFAs tested,[1]; trend in effects on both types of K^+ currents,the most potent of the FFAs tested
same,effect on stimulus-induced depolarization (in words),[5]; 10 μM linoleic acid,"significantly enhanced stimulus-induced depolarization of TRCs; also recorded: increase in the magnitude of stimulus-induced depolarization of taste receptor cells; also recorded: prolonged ""tail"" potential following termination of the stimulus"
same,sustained depolarization during current injection (mean voltage response),"[5]; 10 μM linoleic acid, 18 pA, n=7 cells, saline 22.4±8.5 mV",36.8±9.2 mV
same,activation at 10 µM,"[5]; Rattus norvegicus, 10 μM, 18 pA, n=7, read-out: increase of mean voltage response over saline",64%
same,"inhibition of the delayed rectifying K^+ channels, O-M rats",[3],inhibited the delayed rectifying K^+ channels in a concentration-dependent manner
same,sensitivity of S5B/P1 TRCs to inhibition compared with O-M TRCs,[4],significantly more sensitive to inhibition
same,"inhibition of the delayed rectifying K^+ channels, S5B/P1 rats",[4],inhibited the delayed rectifying K^+ channels in a concentration-dependent manner
"CCCCC/C=C/C/C=C/CCCCCCCC(=O)O [linolelaidic acid, reference compound]","effect on outward K^+ currents, specificity test",[1],did not significantly affect outward K^+ currents
same,"effect on outward K^+ currents, specificity test",[1]; listed as linolelaidic,no effect on outward K^+ currents
"CC/C=C/C/C=C/C/C=C/CCCCCCCC(=O)O [linolenelaidic acid, reference compound]","effect on outward K^+ currents, specificity test",[1],no effect on outward K^+ currents; also recorded: did not significantly affect outward K^+ currents
CC(C)(C(=O)c1cccnc1)c1cccnc1 [metyrapone],inhibition at 1000 µM,"[2]; Rattus norvegicus, 1 mM, n=6 cells, read-out: inhibition of the outward current by metyrapone alone",23.8 ± 9.7%
"CCCCCCCC/C=C\CCCCCCCCCCCCCC(=O)O [nervonic acid, reference compound]","effect on outward K^+ currents, specificity test",[1],did not have significant effects
"CCCCCCCC/C=C\CCCCCCCC(=O)O [oleic acid, reference compound]","effect on outward K^+ currents, specificity test",[1],did not have significant effects
same,enhancement of Kir,[6],did not enhance Kir
"CCCCCC/C=C\CCCCCCCC(=O)O [palmitoleic acid, reference compound]","effect on outward K^+ currents, specificity test",[1],did not have significant effects
linolenic acid,"effect on outward K^+ currents, specificity test",[1],significantly reduced outward K^+ currents
same,stimulation of taste receptor cells,[1],stimulate taste receptor cells
same,"inhibition of the delayed rectifying K^+ channels, O-M rats",[3],inhibited the delayed rectifying K^+ channels in a concentration-dependent manner
same,sensitivity of S5B/P1 TRCs to inhibition compared with O-M TRCs,[4],significantly more sensitive to inhibition
same,"inhibition of the delayed rectifying K^+ channels, S5B/P1 rats",[4],inhibited the delayed rectifying K^+ channels in a concentration-dependent manner
